Data published in US20080194506A1, “Oligodeoxyribonuleotides of 4000-10000 Dalton for Treating” (Gentium SPA, priority 2005, published 2008).

Experiments:
[1] = tested on: human microvascular endothelial cells; assay: In vitro angiogenesis assay: microvascular endothelial cells vascularizing through a layer of dermal fibroblasts; format: cell-based
Procedure: The aortic ring assay investigates macrovascular endothelial cells. But often, the tumor vasculature consists of microvascular endothelial cells. Therefore, a third in vitro angiogenesis assay was performed on the basis of microvascular endothelial cells vascularizing through a layer of dermal fibroblasts after 9-11 days of culture. These vessel-like structures can subsequently be visualized by staining for CD31 and vWF.

human gastric carcinoma = assay: Dorsal skin chamber assay, human gastric carcinoma mouse model (Xenograft system); format: in vivo; conditions: treated vs control tumors; first data
Text: We are currently performing a dorsal skin chamber assay (14) that investigates the effect of defibrotide in a highly vascularized human gastric carcinoma mouse model (Xenograft system). […] This set of experiments will be reproduced in due time.

[2] = tested on: transdifferentiating ELC (TuDC-ELC); assay: Matrigel tube formation assay of TuDC-ELC; format: cell-based, human
Text: We have recently developed a model for an alternative pathway of tumor angiogenesis. […] These endothelial-like cells (ELC) can transdifferentiate from tumor-associated dendritic cells under specific culture conditions (11). Briefly, monocytes are elutriated from leukapheresis products of healthy human blood donors and cultured in the presence of granulocyte-macrophage-colony stimulating factor (GM-CSF) and interleukin 4 (IL-4) to stimulate the differentiation of dendritic cells (DC). In addition, cells are treated with a cocktail specifically released by tumor cells (M-CSF, IL.6 and lactate, Gottfried et al., manuscript submitted) to promote the outgrowth of tumor-associated dendritic cells (TuDC).
These TuDC-ELC acquire the phenotype of endothelial cells (FactorVIII related Ag, vWF) while they lose monocytic (CD14) and dendritic cell markers (CD1a). […] In addition, they are able to form tube-like structures in Matrigel™, an in vitro assay of angiogenesis.
The Matrigel™ assay is one of the most popular and widely used in vitro angiogenesis assays (22). […]
By the help of a complimentary software from the NIH (Image J, http://rsb.info.nih.gov/ij/), we are able to quantify these effects, the total length of tubes and the area of the photograph are assessed, the microvascular density (MVD) is then given in total length/area [pix-1].

serum VEGF = assay: Serum VEGF levels in patients after allogeneic stem cell transplantation; format: in vivo, human; conditions: cohort of 17 treated patients after allogeneic SCT
[3] = tested on: human umbilical vene (HUVEC) endothelial cells; assay: Matrigel tube formation assay of HUVEC; format: cell-based; conditions: single addition, 10 μg/mL, 7 days, FIG. 1A
Procedure: (§1) The Matrigel™ assay is one of the most popular and widely used in vitro angiogenesis assays (22). Matrigel™ is a semisolid synthetic mixture of extracellular matrix proteins which simulate the matrix that physiologically exist beneath the endothelial cell wall of a blood vessel. When the cells of question are seeded onto this matrix in microscopic chamber slides, they are activated to form tubular structures in 3-7 days, but only in the case that they have an endothelial phenotype. Therefore, this assay is suitable to show the potential capacity of cells to give rise to a tumor vasculature.
(§2) TuDC-ELC and mature, differentiated endothelial cells, [human umbilical vene (HUVEC) or microvascular endothelial cells (HMEC) as “stable” controls] were incubated in the presence or absence of oligotide or Defibrotide (10 μg/mL each) for 7 days.

[4] = tested on: activated p70S6 kinase (p-p70S6); assay: Western Blot analyses of activated p70S6 kinase; format: cell-based; conditions: preliminary evidence
[5] = tested on: rat aorta endothelial cells; assay: Aortic ring assay: sprouting of rat aorta endothelial cells in Matrigel; format: cell-based; conditions: applied on a daily basis, FIG. 2
[6] = tested on: microvascular endothelial cells (HMEC); assay: Matrigel tube formation assay of HMEC; format: cell-based, human; conditions: single addition, 10 μg/mL, 7 days, FIG. 1A
Procedure: as §1, §2

## defibrotide
[1]; daily application, 9-11 days of culture, FIGS. 3A and B
  angiogenesis of human microvascular endothelial cells: can also block angiogenesis
[1]; human microvascular endothelial cells, FIGS. 3A and B
  most effective concentration for blocking angiogenesis: around 10 μg/mL
[1]; single application
  angiogenesis of human microvascular endothelial cells: could not significantly block angiogenesis
Human gastric carcinoma
  microvascular density (MVD) of tumors: lower than that of control tumors
[2]; 10 μg/mL, 7 days, clinical and subclinical concentrations
  tube formation of transdifferentiating ELC (TuDC-ELC) in Matrigel: can inhibit tube formation
[2]; Image J quantification, p=0.02 TTEST, FIG. 1B
  microvascular density (MVD) of TuDC-ELC, total length/area: significantly (p=0.02, TTEST) downregulates MVD
Serum VEGF
  serum VEGF levels: striking decline
[3]
  tube formation potential of HUVEC: not affected
[4]
  effect on activated p70S6 kinase (p-p70S6): downregulating effect
[5]
  prevention of sprouting of rat aorta endothelial cells in Matrigel: ~100%
[6]
  tube formation potential of HMEC: not affected
